Results from PMC7587356, “High-Throughput Screening for Inhibitors of the SARS-CoV-2 Protease Using a FRET-Biosensor” (Molecules, 2020).
Where a name gives a salt, the structure may show the parent alone. Read-outs that look alike come from different tables or passages of the source.

Biological target: SARS-CoV-2 3CLpro (Severe acute respiratory syndrome coronavirus 2, UniProt P0DTD1)
Experiment: biochemical
Format: biochemical
Parameters: Replicate_1 / Replicate_2 / mean / mean (LOPAC_screen_w_protease): unit not given here
Details: for mean (LOPAC screen with protease) / Replicate_1 (LOPAC screen with protease) / Replicate_2 (LOPAC screen with protease): primary screen at 5 µM; for inhibition at 5 µM: 4 h
[1] = sheet LOPAC_screen_w_protease, mean of two replicates
[2] = sheet LOPAC_screen_w_protease, replicate 1
[3] = sheet LOPAC_screen_w_protease, replicate 2
[4] = sheet LOPAC_screen_w_protease, primary screen of LOPAC1280 at 5 µM with protease, mean of the two replicates, read-out: mean
[5] = sheet LOPAC_screen_w_protease, primary screen of LOPAC1280 at 5 µM with protease, replicate 1, read-out: Replicate_1
[6] = sheet LOPAC_screen_w_protease, primary screen of LOPAC1280 at 5 µM with protease, replicate 2, read-out: Replicate_2
[7] = LOPAC1280 primary screen with protease, 5 µM compound, replicate 1, read-out: Replicate_1 (LOPAC_screen_w_protease)
[8] = LOPAC1280 primary screen with protease, 5 µM compound, replicate 2, read-out: Replicate_2 (LOPAC_screen_w_protease)
[9] = LOPAC1280 primary screen with protease, 5 µM compound, mean of the two replicates
[10] = sheet LOPAC_screen_w_protease, LOPAC1280 primary screen at 5 µM, with protease, mean of the two replicates
[11] = sheet LOPAC_screen_w_protease, LOPAC1280 primary screen at 5 µM, with protease, replicate 1
[12] = sheet LOPAC_screen_w_protease, LOPAC1280 primary screen at 5 µM, with protease, replicate 2
[13] = sheet LOPAC_screen_w_protease, primary screen of LOPAC1280 at 5 µM with protease, mean of the two replicates
[14] = sheet LOPAC_screen_w_protease, primary screen of LOPAC1280 at 5 µM with protease, replicate 1
[15] = sheet LOPAC_screen_w_protease, primary screen of LOPAC1280 at 5 µM with protease, replicate 2
[16] = LOPAC1280 primary screen with protease, 5 µM compound, mean of two replicates
[17] = LOPAC1280 primary screen with protease, 5 µM compound, replicate 1
[18] = LOPAC1280 primary screen with protease, 5 µM compound, replicate 2
[19] = sheet LOPAC_screen_w_protease, LOPAC1280 at 5 µM, mean of two replicates
[20] = sheet LOPAC_screen_w_protease, LOPAC1280 at 5 µM, replicate 1
[21] = sheet LOPAC_screen_w_protease, LOPAC1280 at 5 µM, replicate 2

Cl.Cl.Oc1ccc2c3c1O[C@H]1c4[nH]c5c(c4C[C@@]4(O)[C@@H](C2)N(CC2CC2)CC[C@]314)C[C@@]1(O)[C@H]2Cc3ccc(O)c4c3[C@@]1(CCN2CC1CC1)[C@H]5O4 [nor-Binaltorphimine dihydrochloride]
mean (LOPAC screen with protease) [1]: 34.0021 | Replicate_1 (LOPAC screen with protease) [2]: 34.0521 | Replicate_2 (LOPAC screen with protease) [3]: 33.9521

Br.NCc1cc(O)no1 [Muscimol hydrobromide]
mean (sheet LOPAC_screen_w_protease, primary screen with protease, 5 µM, mean of two replicates): 0.06352 | Replicate_1 (sheet LOPAC_screen_w_protease, primary screen with protease, 5 µM, replicate 1): 2.752 | Replicate_2 (sheet LOPAC_screen_w_protease, primary screen with protease, 5 µM, replicate 2): -2.625

Clc1ccc2c(c1)C(N1CCNCC1)=Nc1ccccc1O2 [Amoxapine]
inhibition at 5 µM [4]: 3.27% | inhibition at 5 µM [5]: 3.65% | inhibition at 5 µM [6]: 2.89%

CCN1C(=O)C=CC1=O [N-Ethylmaleimide]
inhibition at 5 µM [7]: 5.02% | inhibition at 5 µM [8]: -1.33% | mean (LOPAC_screen_w_protease) [9]: 1.849

O=C(O)/C=C\C(=O)O.c1cnc(N2CCN(Cc3ccc4c(c3)OCO4)CC2)nc1 [Piribedil maleate]
mean [10]: 0.4342 | Replicate_1 [11]: -0.05723 | Replicate_2 [12]: 0.9256

Br.CCCN1CCc2cc(O)cc3c2[C@H]1Cc1ccc(O)c(O)c1-3
mean (LOPAC screen with protease) [1]: 94.9167 | Replicate_1 (LOPAC screen with protease) [2]: 94.651 | Replicate_2 (LOPAC screen with protease) [3]: 95.1824

C/C(=C\c1ccc(C(=O)O)cc1)c1ccc2c(c1)C(C)(C)CCC2(C)C [TTNPB]
mean [13]: 3.657 | Replicate_1 [14]: 5.544 | Replicate_2 [15]: 1.7694

CCCCCCCCCCCCCCCCCCNC(=O)OCC(COP(=O)([O-])OCC[n+]1ccsc1)OC (stereo not shown) [CV-3988]
mean (LOPAC_screen_w_protease) [16]: 1.326 | Replicate_1 (LOPAC_screen_w_protease) [17]: -0.07699 | Replicate_2 (LOPAC_screen_w_protease) [18]: 2.73

Cc1c(CC(C)(C)C(=O)O)n(Cc2ccc(Cl)cc2)c2ccc(F)cc12 [L-655,240]
mean (LOPAC_screen_w_protease) [16]: 1.677 | Replicate_1 (LOPAC_screen_w_protease) [17]: 2.414 | Replicate_2 (LOPAC_screen_w_protease) [18]: 0.9392

CN1CCN(CCCN2c3ccccc3Sc3ccc(Cl)cc32)CC1 [Prochlorperazine dimaleate]
inhibition at 5 µM (sheet LOPAC_screen_w_protease, primary screen with protease, mean of two replicates, read-out: mean): 2.43% | inhibition at 5 µM (sheet LOPAC_screen_w_protease, primary screen with protease, replicate 1, read-out: Replicate_1): 4.42% | inhibition at 5 µM (sheet LOPAC_screen_w_protease, primary screen with protease, replicate 2, read-out: Replicate_2): 0.439%

COc1ccccc1N1CCNCC1.Cl
mean [19]: 0.9162 | Replicate_1 [20]: 1.248 | Replicate_2 [21]: 0.5839

Br.CCCN(CCC)C1CCc2cccc(O)c2C1 (racemic) [(±)-8-Hydroxy-DPAT hydrobromide]
mean (LOPAC_screen_w_protease) [9]: 1.82 | Replicate_1 (LOPAC_screen_w_protease) [17]: 3.36 | Replicate_2 (LOPAC_screen_w_protease) [18]: 0.2793

Clc1ccc(N2C[C@H]3CC[C@@H](C2)N3)nn1 [DBO-83]
mean (sheet LOPAC_screen_w_protease, LOPAC1280 primary screen with protease, 5 µM compound, mean of the two replicates): 6.059 | Replicate_1 (sheet LOPAC_screen_w_protease, LOPAC1280 primary screen with protease, 5 µM compound, replicate 1): 7.536 | Replicate_2 (sheet LOPAC_screen_w_protease, LOPAC1280 primary screen with protease, 5 µM compound, replicate 2): 4.581

COc1cc2ncnc(Nc3cccc(Cl)c3)c2cc1OC [Tyrphostin AG 1478]
inhibition at 5 µM (sheet LOPAC_screen_w_protease, LOPAC1280 at 5 µM, mean of two replicates, read-out: mean): 1.16% | inhibition at 5 µM (sheet LOPAC_screen_w_protease, LOPAC1280 at 5 µM, replicate 1, read-out: Replicate_1): 1.39% | inhibition at 5 µM (sheet LOPAC_screen_w_protease, LOPAC1280 at 5 µM, replicate 2, read-out: Replicate_2): 0.935%

Nc1cc(N2CCCCC2)nc(N)[n+]1[O-] [Minoxidil]
inhibition at 5 µM (sheet LOPAC_screen_w_protease, primary screen with protease, compound at 5 µM, mean of two replicates, read-out: mean): 2.95% | inhibition at 5 µM (sheet LOPAC_screen_w_protease, primary screen with protease, compound at 5 µM, replicate 1, read-out: Replicate_1): 3.92% | inhibition at 5 µM (sheet LOPAC_screen_w_protease, primary screen with protease, compound at 5 µM, replicate 2, read-out: Replicate_2): 1.98%

CNC(=O)Oc1ccc2c(c1)[C@]1(C)CCN(C)[C@@H]1N2C [(-)-Physostigmine]
inhibition at 5 µM [4]: 3.4% | inhibition at 5 µM [5]: 5.4% | inhibition at 5 µM [6]: 1.4%

N=C(N)N1CCc2ccccc2C1 [Debrisoquin sulfate]
inhibition at 5 µM (read-out: Replicate_1): 2.87% | inhibition at 5 µM (read-out: Replicate_2): 3.04% | inhibition at 5 µM (read-out: mean): 2.96%

CC(C)c1ccc2c(c1)c(SC(C)(C)C)c(CC(C)(C)C(=O)O)n2Cc1ccc(Cl)cc1 [MK-886]
mean [13]: 3.5784 | Replicate_1 [14]: 4.4392 | Replicate_2 [15]: 2.7176

CCN(CC)c1ncnc2c1ncn2[C@@H]1O[C@H](COP(=O)([O-])OP(=O)([O-])C(Br)(Br)P(=O)([O-])O)[C@@H](O)[C@H]1O.[Na+].[Na+].[Na+] [ARL 67156 trisodium salt]
mean (sheet LOPAC_screen_w_protease, primary screen with protease, compound at 5 µM, mean of two replicates): 2.893 | Replicate_1 (sheet LOPAC_screen_w_protease, primary screen with protease, compound at 5 µM, replicate 1): 2.692 | Replicate_2 (sheet LOPAC_screen_w_protease, primary screen with protease, compound at 5 µM, replicate 2): 3.094

COc1cc2nc(N3CCN(C(=O)OCc4ccccc4)C(C(=O)NC(C)(C)C)C3)nc(N)c2cc1OC [L-765,314]
mean [19]: 1.212 | Replicate_1 [20]: 3.331 | Replicate_2 [21]: -0.9073

CC(=O)[C@H]1CC[C@H]2[C@@H]3CC[C@H]4C[C@H](O)CC[C@]4(C)[C@H]3CC[C@]12C [5alpha-Pregnan-3alpha-ol-20-one]
mean [10]: 0.7105 | Replicate_1 [11]: 1.221 | Replicate_2 [12]: 0.1995

C[C@@H]1OC[C@H](C[N+](C)(C)C)O1.[I-] [(+)-cis-Dioxolane iodide]
mean (LOPAC screen with protease) [1]: 7.2322 | Replicate_1 (LOPAC screen with protease) [2]: 5.683 | Replicate_2 (LOPAC screen with protease) [3]: 8.781

Nc1ncn([C@@H]2O[C@H](CO)[C@@H](O)[C@H]2O)c(=O)n1 [5-azacytidine]
mean (LOPAC screen with protease) [1]: 9.256 | Replicate_1 (LOPAC screen with protease) [2]: 17.5612 | Replicate_2 (LOPAC screen with protease) [3]: 0.9518

N#C/C(=C\c1ccc(O)c(O)c1)C(=O)Nc1ccccc1 [Tyrphostin AG 494]
inhibition at 5 µM [4]: 4.07% | inhibition at 5 µM [5]: 4.44% | inhibition at 5 µM [6]: 3.69%

CN(C)CCCN1c2ccccc2Sc2ccc(C(F)(F)F)cc21 [Triflupromazine hydrochloride]
inhibition at 5 µM (sheet LOPAC_screen_w_protease, LOPAC1280 primary screen at 5 µM, with protease, mean of the two replicates, read-out: mean): 0.692% | inhibition at 5 µM (sheet LOPAC_screen_w_protease, LOPAC1280 primary screen at 5 µM, with protease, replicate 1, read-out: Replicate_1): 1.65% | inhibition at 5 µM (sheet LOPAC_screen_w_protease, LOPAC1280 primary screen at 5 µM, with protease, replicate 2, read-out: Replicate_2): -0.271%

C=CC[N+](C)(C)c1ccc(CCC(=O)CCc2ccc([N+](C)(C)CC=C)cc2)cc1.[Br-].[Br-] [BW 284c51]
Replicate_1: 2.051 | Replicate_2: 3.598 | mean: 2.825

CC(C)N(CCC(=O)c1ccc2ccccc2c1)Cc1ccccc1.Cl [ZM 39923 hydrochloride]
mean (LOPAC screen with protease) [1]: 93.4745 | Replicate_1 (LOPAC screen with protease) [2]: 92.2854 | Replicate_2 (LOPAC screen with protease) [3]: 94.6636

Br.Br.N=C(N)SCCc1ccc(CCSC(=N)N)cc1 [1,4-PBIT dihydrobromide]
mean [10]: 0.7618 | Replicate_1 [11]: 0.8182 | Replicate_2 [12]: 0.7055

C=CCN1CC[C@]23c4c5ccc(O)c4O[C@@H]2/C(=N/N=C2\CC[C@@]4(O)C6Cc7ccc(O)c8c7[C@@]4(CCN6CC=C)[C@@H]2O8)CC[C@@]3(O)C1C5.Cl.Cl [Naloxonazine dihydrochloride]
mean (LOPAC screen with protease) [1]: 7.252 | Replicate_1 (LOPAC screen with protease) [2]: 6.395 | Replicate_2 (LOPAC screen with protease) [3]: 8.109

Cc1ccc(N(CC2=NCCN2)c2cccc(O)c2)cc1 [Phentolamine mesylate]
inhibition at 5 µM (sheet LOPAC_screen_w_protease, primary screen with protease, 5 µM, mean of two replicates, read-out: mean): -0.0499% | inhibition at 5 µM (sheet LOPAC_screen_w_protease, primary screen with protease, 5 µM, replicate 1, read-out: Replicate_1): -0.162% | inhibition at 5 µM (sheet LOPAC_screen_w_protease, primary screen with protease, 5 µM, replicate 2, read-out: Replicate_2): 0.062%

N[C@@H]1CON=C1O [D-Cycloserine]
inhibition at 5 µM [7]: 2.63% | inhibition at 5 µM [8]: 0.045% | mean (LOPAC_screen_w_protease) [16]: 1.34

Br.NC1CCc2cc(O)c(O)cc2C1 (stereo not shown) [6,7-ADTN hydrobromide]
mean (LOPAC screen with protease) [1]: 64.0916 | Replicate_1 (LOPAC screen with protease) [2]: 63.1732 | Replicate_2 (LOPAC screen with protease) [3]: 65.0099

COc1ccc2c(c1O)-c1cccc3c1[C@@H](C2)N(C)CC3 [R(−)-apocodeine, reference compound]
inhibition of 3CLpro in the primary screen (5 µM): 6%
